Experimental data as given in ChEMBL document CHEMBL3714726, “Substituted quinoxaline carboxylic acids for the inhibition of PASK” (2014).

Columns and labels:
[1] = target: PAS domain-containing serine/threonine-protein kinase (Homo sapiens, UniProt Q96RG2); assay: Inhibition of human recombinant PASK using Ulight-peptide substrate incubated for 2 hrs by TR-FRET assay
[2] = Half life in Sprague-Dawley rat at 1 mg/kg, iv after 0.083 to 24 hrs by LC-MS/MS method; format: ADME, organism-based; settings: in vivo

Chain of PAS domain-containing serine/threonine-protein kinase (Q96RG2 whole entry, the tested form may be a part): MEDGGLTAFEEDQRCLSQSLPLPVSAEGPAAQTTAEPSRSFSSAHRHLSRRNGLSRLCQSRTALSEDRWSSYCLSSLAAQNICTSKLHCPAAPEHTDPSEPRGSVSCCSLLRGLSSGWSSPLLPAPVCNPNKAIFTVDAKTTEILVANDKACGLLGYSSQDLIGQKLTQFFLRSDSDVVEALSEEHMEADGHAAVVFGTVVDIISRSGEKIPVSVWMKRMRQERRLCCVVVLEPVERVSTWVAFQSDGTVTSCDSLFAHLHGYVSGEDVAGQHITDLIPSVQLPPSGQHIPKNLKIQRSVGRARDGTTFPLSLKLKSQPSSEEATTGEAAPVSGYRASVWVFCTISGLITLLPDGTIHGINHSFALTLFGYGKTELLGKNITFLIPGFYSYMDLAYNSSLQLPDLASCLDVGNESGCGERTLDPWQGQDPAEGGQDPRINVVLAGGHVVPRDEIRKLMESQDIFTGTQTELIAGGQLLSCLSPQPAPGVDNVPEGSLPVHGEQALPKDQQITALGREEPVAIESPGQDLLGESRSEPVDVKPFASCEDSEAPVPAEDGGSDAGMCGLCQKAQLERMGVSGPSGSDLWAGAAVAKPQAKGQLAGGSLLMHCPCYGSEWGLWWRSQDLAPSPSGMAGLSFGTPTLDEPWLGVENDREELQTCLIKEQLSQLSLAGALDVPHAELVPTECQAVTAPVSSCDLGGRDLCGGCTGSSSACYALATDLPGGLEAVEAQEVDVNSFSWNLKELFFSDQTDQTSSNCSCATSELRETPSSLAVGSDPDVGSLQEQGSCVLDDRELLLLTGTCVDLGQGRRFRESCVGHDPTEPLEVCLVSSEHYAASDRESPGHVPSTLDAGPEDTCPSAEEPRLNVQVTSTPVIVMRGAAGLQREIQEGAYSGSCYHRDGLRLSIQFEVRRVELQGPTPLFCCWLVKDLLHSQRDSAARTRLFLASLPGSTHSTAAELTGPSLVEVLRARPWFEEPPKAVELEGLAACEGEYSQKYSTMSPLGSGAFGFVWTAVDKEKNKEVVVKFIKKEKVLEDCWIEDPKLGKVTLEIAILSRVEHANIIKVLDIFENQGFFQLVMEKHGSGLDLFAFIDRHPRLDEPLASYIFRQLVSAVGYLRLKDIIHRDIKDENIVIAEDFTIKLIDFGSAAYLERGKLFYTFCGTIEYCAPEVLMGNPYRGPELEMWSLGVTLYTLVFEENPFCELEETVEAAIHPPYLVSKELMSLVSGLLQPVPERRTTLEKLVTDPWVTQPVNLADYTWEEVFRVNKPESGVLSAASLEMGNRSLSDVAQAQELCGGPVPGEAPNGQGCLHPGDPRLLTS

SMILES	IC50 [1] [µM]	half-life [2] [min]
CC(C)N(C)c1nc2cc(C(=O)O)ccc2nc1-c1nc2ccccc2o1	≤ 10	
COc1ccc(-c2nc3ccc(C(=O)O)cc3nc2N(C)C(C)C)cn1	≤ 10	
C[C@H]1COCCN1c1nc2cc(C(=O)O)ccc2nc1-c1ccc(F)cc1		463
